Measurements taken from US12227653B2, “Fluorinated coumarins” (3M INNOVATIVE PROPERTIES COMPANY, priority 2019, dated 2025).
Values after ≈ are worked out from the molar mass of the structure shown.

Experiments:
Type in all cases: physicochemical
UV/Vis Test Method = conditions: diluted into HFE 7200, 1 cm quartz cuvette
Procedure: Unless otherwise mentioned, the sample was diluted into HFE 7200 and spectra were collected on an Ultraviolet-Visible (UV/Vis) spectrometer (available under the trade designation “CARY 8454” from Agilent Technologies, Inc, Santa Clara, CA) using 1 cm quartz cuvettes.

Fluorescence Test Method = conditions: in CHCl3 instead of HFE 7200
Procedure: Unless otherwise mentioned, the sample was diluted into HFE 7200 and spectra were collected on a fluorimeter (available under the trade designation “FLUOROLOG 3-21 HR” from Jobin-Yvon Horiba, Inc., Edison, NJ) in a 1 cm fluorescence cuvette under the following experimental parameters: • Orientation: 10 degree (front face) • EX Slit Width: 1.0 nm • EM Slit Width: 1.0 nm • EX Data Interval: 5 nm • EM Data Interval: 5 nm • EX Wavelength range: 300 nm to 500 nm • EM Wavelength range: 400 nm to 650 nm

[1] = Solubility Test Method in fluorinated fluids; conditions: for solubility: organic solvent or mixture, thermodynamic from solid
Procedure: For compounds 4 and 5, a known amount of material was weighed into a scintillation vial and 1 mL of each solvent was volumetrically added followed by sonication for dissolution. For samples that completely dissolved, the formed solution was then added to additional aliquots of sample in an attempt to generate a saturated solution. […] In the case of compound 8, approximately 100 mg was suspended in 10 mL of each solvent and shaken for 1-2 h, after which the solution was filtered via syringe filter into a tared vial and the solution mass measured. The solvent was evaporated in vacuo and the mass of the remaining residue was recorded.
These samples were repeated using less mass of Molecule 5. […] It is believed that some molecules may have a tendency to gel at high concentrations (e.g., the molecule comprises more than 50 wt % of the composition).

Structure (SMILES): Cc1cc(=O)oc2cc(OCCCCCN(C)S(=O)(=O)C(F)(F)C(F)(F)C(F)(F)C(F)(F)F)ccc12 [Molecule 8]
- λmax from the UV/Vis test (UV/Vis Test Method): 320 nm
- fluorescence emission λmax (Fluorescence Test Method): 380 nm
- fluorescence excitation λ (Fluorescence Test Method): 320 nm
- solubility ([1]; solvent HFE 7200): 1570 µg/mL (≈ 2.82 mM)
- solubility ([1]; solvent PF-5052): 4070 µg/mL (≈ 7.3 mM)
- Solubility (g/mL) ([1]; solvent FC-70): Insoluble
- wt % of solution ([1]; solvent FC-70): 0 wt %
- wt % of solution ([1]; solvent HFE 7200): 0.1 wt %
- wt % of solution ([1]; solvent PF-5052): 0.2 wt %
